These results are taken from patent US6451861B1, “Reduction of gastro-intestinal bacterial load” (priority 1999, dated 2002).

In assay [1] the test system is E. coli strains AW574 or AW405. The experiment in a line: Lysis of E. coli by terpenes (galactosidase activity, ONPG, 420 nm).
Text: Lysis of the cell membrane was monitored by the determination of galactosidase activity. […] This enzyme is inducible in the presence of isopropyl-1-thiogalactosidase (IPTG) and assayed colorimetricaly with substrate o-nitro-phenyl-B-D-galactoside (ONPG). ONPG is cleaved to release o-nitrophenol with peak absorvance at 420 nm. Since intact E. coli is impermeable to both ONPG and the enzyme, the cells have to be lysed prior to enzymatic assay. Therefore the ability of terpenes to lyse E. coli can be measured with this enzymatic assay and compared to known lysing agents. The procedure used was as follows: E. coli strains AW574 or AW405 were cultured overnight in 10 ml tryptone broth with 1 nM IPTG at 35° C. Cells were allowed to growth after an absorbance equal to 0.9 was reached. Cells were harvested, washed with phosphate buffer and resuspended to an absorbance equal to 0.5. One tenth of a ml of the bacteria culture was added to 0.9 ml of buffer, warmed to 30° C. and then 80 ul of terpenes (85% terpenes and 15% polysorbate-80), 80 ul water (background) or 40 ul chloroform plus 40 ul 1% SDS in water (positive control) were added. After the addition of the lysing agents the tubes were mixed for 10 seconds and 0.2 ml of ONPG (4 mg/ml water) was added, then incubated for 5 minutes. The enzyme activity was stopped with 0.5 ml of 1 M sodium carbonate. After being centrifuged for 3 minutes at 1,500×g, supernatant was transferred to cuvettes and read at 420 nm. The relative degree of lysis caused by terpenes was calculated as follows:
100×(OD terpenes−OD water)/(OD chloroform−OD water)
Another assay concerns E. coli. The following applies: cited from earlier work.

In assay [1] (80 ul Polysorbate-80 alone), Polysorbate-80 [reference compound] gave a Relative lysis % of 3.2%.

For `CC(C)=CCC/C(C)=C/CO` [Geraniol], the Relative lysis % in assay [1] (Geraniol 3.63 uM, relative to SDS + chloroform = 100%) amounted to 2.4%; in assay [1] (Geraniol 363 uM, relative to SDS + chloroform = 100%), 34%; in assay [1] (Geraniol 3,630 uM, relative to SDS + chloroform = 100%), 98%; in assay [1] (Geraniol 36,300 uM, relative to SDS + chloroform = 100%), 96%.

As for `CC(C)=CCCC(C)=CC=O` [citral], the “citral concentration in media that reduced the concentration of E. coli” value with E. coli is “more than 0.01%”. Also, in the assay with E. coli (in media), the “citral concentration with bactericidal effect” value was 0.08%.
